Test results as given in patent US20220233661A1, “METHOD OF DETERMINING ELIGIBILITY OF CANCER PATIENT FOR PEPTIDE VACCINE THERAPY” (priority 2019, published 2022).

Experiments:
cancer patients = test: Test Example 4: correlation between vaccination with individual peptides (or peptide sets) and OS, Cox proportional hazards regression; assay type: in vivo, human; details: for HR: Cox proportional hazards regression, OS; for Correlation between immune responses and OS: Negative (mOS) / Correlation between immune responses and OS: Positive (mOS): Table 20, <64% neutrophil and ≥26% lymphocyte; for Correlation between immune responses and OS: Negative (mOS): vaccinated patients with negative IgG response; for Correlation between immune responses and OS: Positive (mOS): vaccinated patients with positive IgG response
How it was run: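 Univariate and multivariate Cox proportional hazards regression of each of 31 vaccine peptides against OS (enrollment to death or last contact), giving HR with 95% CI; also run separately in 2,085 advanced (stage IV+recurrence) and 503 stage I-III patients. Two-sided p<0.05 considered significant.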

[1] = system: anti-peptide IgG in plasma; test: Test Example 4: peptide-specific IgG titer pre and post vaccination, bead-based multiplexed Luminex assay; assay type: in vivo, human; details: for Pre-vaccination IgG Negative (number of patients) / Pre-vaccination IgG Positive (number of patients): cut off 10 FIU; for Post vaccination IgG: number of (positive) patients among vaccinated: positive IgG response; for Pre-vaccination IgG Negative patients: number of 2,588 patients below 10 FIU; for Pre-vaccination IgG Positive patients: number of 2,588 patients with ≥10 FIU; for Post vaccination IgG: (positive) patients: number of vaccinated patients with positive IgG response; for Correlation between immune responses and OS: Negative (mOS): patients with negative post-vaccination IgG response to the peptide; for Correlation between immune responses and OS: Positive (mOS): patients with positive post-vaccination IgG response to the peptide
How it was run: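 Plasma taken before vaccination and at the end of the first and second cycles; incubated with peptide-coupled beads 2 hours at 25° C., then biotinylated anti-human IgG (gamma chain-specific) and streptavidin-PE. Bead FIU read by Luminex; positivity cutoff 10 FIU in 100-fold diluted samples.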

[2] = Table 18, all 2,588 cases, vaccinated vs non-vaccinated
[3] = Table 18, all 2,588 cases, median OS of patients under PPV containing the peptide
[4] = Table 18, all 2,588 cases, median OS of patients under PPV not containing the peptide
[5] = Table 19, 2,085 advanced cancer patients (stage IV+recurrence)
[6] = Table 19, 2,085 advanced cancer patients (stage IV+recurrence), PPV containing the peptide
[7] = Table 19, 2,085 advanced cancer patients (stage IV+recurrence), PPV not containing the peptide
[8] = Table 21, patients showing both <64% neutrophil and ≥26% lymphocyte
[9] = Table 21, patients showing both <64% neutrophil and ≥26% lymphocyte, PPV containing the peptide
[10] = Table 21, patients showing both <64% neutrophil and ≥26% lymphocyte, PPV not containing the peptide
[11] = Table 20, patients showing both <64% neutrophil and ≥26% lymphocyte
[12] = patients showing detectable levels
[13] = patients showing positive responses
[14] = 2,085 advanced cancer patients (stage IV+recurrence)

Row | Sequence | HR (cancer patients; [2]) | Vaccinate cases (mOS) (cancer patients; [3]) | Non-vaccinate cases (mOS) (cancer patients; [4]) | HR (cancer patients; [5]) | Vaccinate cases (mOS) (cancer patients; [6]) | Non-vaccinate cases (mOS) (cancer patients; [7]) | Correlation between immune responses and OS: Negative (mOS) (cancer patients) | Correlation between immune responses and OS: Positive (mOS) (cancer patients) | HR (cancer patients; [8]) | Vaccinate cases (mOS) (cancer patients; [9]) | Non-vaccinate cases (mOS) (cancer patients; [10]) | Post vaccination IgG Median (FIU) [1, 11] | Pre-vaccination IgG Median (FIU) [1, 11] | Pre-vaccination IgG Negative (number of patients) [1, 11] | Pre-vaccination IgG Positive (number of patients) [1, 11] | Post vaccination IgG: number of (positive) patients among vaccinated [1, 11] | Pre-vaccination IgG Negative patients [1] | Pre-vaccination IgG Positive patients [1] | Post vaccination IgG: (positive) patients [1] | Pre-vaccination IgG Median (FIU) [1, 12] | further results
1 | NYSVRYRPGL (listed as Homo sapiens) [MRP3-1293] | 1.1 | 324(11.9) M | 1,226(12.1) M | 1.0 | 253(10.5) M | 993(10.4) M | 12.6 months | 24.3 months | 1.0 | 132(17.5) M | 493(18.4) M | 6,491 FIU | 27 FIU | 423 | 643 | 132(83) | 1,030 | 1,558 | 324(157) | 27 FIU | Post vaccination IgG Median (FIU) [1, 13]: 6,003 FIU; Correlation between immune responses and OS: Negative (mOS) [1]: 8.6 months; Correlation between immune responses and OS: Positive (mOS) [1]: 20.6 months
2 | QIRPIFSNR (listed as Homo sapiens) [SART3-734] | 1.0 | 625(10.9) M | 589(11.3) M | 1.0 | 502(9.5) M | 467(10.2) M | 14.8 months | 29.3 months | 0.9 | 253(17.9) M | 254(17.5) M | 7,098 FIU | 96 FIU | 231 | 835 | 253(116) | 547 | 2,041 | 625(225) | 111 FIU | Post vaccination IgG Median (FIU) [1, 13]: 4,816 FIU; Correlation between immune responses and OS: Negative (mOS) [1]: 11.0 months; Correlation between immune responses and OS: Positive (mOS) [1]: 22.3 months
3 | RLAEYQAYI (listed as Homo sapiens) [SART3-309] | 0.9 | 328(12.1) M | 722(11.1) M | 0.9 | 259(11.6) M | 603(9.8) M | 10.4 months | 28.9 months | 0.9 | 154(19.0) M | 280(15.6) M | 6,009 FIU | 33 FIU | 253 | 813 | 154(99) | 667 | 1,921 | 328(158) | 35 FIU | Post vaccination IgG Median (FIU) [1, 13]: 3,070 FIU; Correlation between immune responses and OS: Negative (mOS) [1]: 10.5 months; Correlation between immune responses and OS: Positive (mOS) [1]: 21.4 months
4 | RYLTQETNKV (listed as Homo sapiens) [PTHrP-102] | 0.9 | 204(13.3) M | 1,346(11.9) M | 0.9 | 168(11.8) M | 1078(10.3) M | 13.9 months | 39 months | 0.9 | 91(21.2) M | 534(18.0) M | 5,336 FIU | 27 FIU | 710 | 356 | 91(51) | 1,702 | 886 | 204(99) | 27 FIU | Post vaccination IgG Median (FIU) [1, 13]: 1,423 FIU; Correlation between immune responses and OS: Negative (mOS) [1]: 11.4 months; Correlation between immune responses and OS: Positive (mOS) [1]: 20.0 months
5 | TFDYLRSVL (listed as Homo sapiens) [Lck-486] | 0.9 | 879(12.3) M | 671(11.3) M | 0.9 | 709(11.1) M | 537(9.6) M | 11.4 months | 25.2 months | 0.9 | 356(19.1) M | 269(17.6) M | 17,613 FIU | 40 FIU | 167 | 899 | 356(274) | 404 | 2,184 | 879(573) | 42 FIU | median OS of non-vaccinated cases (cancer patients; [14]): 9.6 months; median OS of vaccinated cases (cancer patients; [14]): 11.1 months; median OS of vaccinated cases (cancer patients; all 2,588 cases, PPV containing the peptide): 12.3 months; median OS of non-vaccinated cases (cancer patients; all 2,588 cases, PPV not containing the peptide): 11.3 months; Post vaccination IgG Median (FIU) [1, 13]: 15,147 FIU; Correlation between immune responses and OS: Negative (mOS) [1]: 7.2 months; Correlation between immune responses and OS: Positive (mOS) [1]: 19.4 months
6 | TYSVSFDSL (listed as Homo sapiens) [PSMA-624] | 1.0 | 101(11.7) M | 1,449(12.0) M | 1.1 | 78(7.9) M | 1168(10.7) M | 21.2 months | 24.4 months | 0.9 | 37(21.2) M | 588(18.0) M | 10,984 FIU | 26 FIU | 680 | 386 | 37(26) | 1,638 | 950 | 101(50) | 24 FIU | Post vaccination IgG Median (FIU) [1, 13]: 7,772 FIU; Correlation between immune responses and OS: Negative (mOS) [1]: 5.5 months; Correlation between immune responses and OS: Positive (mOS) [1]: 21.7 months
